Entries after “also recorded” stand apart in the source; their conditions may differ. Counter-ions that a name gives are not always drawn. Like-named read-outs stand apart in the source and are kept apart here.
Tests used:
[1] = doses up to 75 mg/kg, rat; cited from earlier work
[2] = 50 mg/kg, canines; cited from earlier work
[3] = mice; cited from earlier work
[4] = Oral administration, pharmacokinetics in mice; type: in vivo; conditions: oral preparation in lipophilic emulsion, single and multiple dose, murine model
CX43 = conditions: aqueous ethanolic formulation, carcinogen-promoted 10T1/2 cells; cited from earlier work
superoxide anion [5] = conditions: mM concentrations, aqueous phase; cited from earlier work
[6] = cited from earlier work
superoxide anion [7] = experiment: Direct superoxide anion scavenging by EPR spectroscopy (DEPMPO spin trap), PMA-stimulated isolated human PMNs; type: cell-based; conditions: aqueous phase; statistical mixture and individual stereoisomers
Protocol: Leukocyte Isolation and Preparation. Human polymorphonuclear leukocytes (PMNs) were isolated from freshly sampled venous blood of a single volunteer by Percoll density gradient centrifugation as described previously. Briefly, each 10 mL of whole blood was mixed with 0.8 mL of 0.1 M EDTA and 25 mL of saline. The diluted blood was then layered over 9 mL of Percoll at a specific density of 1.080 g/mL. After centrifugation at 400×g for 20 min at 20° C., the plasma, mononuclear cell, and Percoll layers were removed. Erythrocytes were subsequently lysed by addition of 18 mL of ice-cold water for 30 s, followed by 2 mL of 10×PIPES buffer (25 mM PIPES, 110 mM NaCl, and 5 mM KCl, titrated to pH 7.4 with NaOH). Cells were then pelleted at 4° C., the supernatant was decanted, and the procedure was repeated. After the second hypotonic cell lysis, cells were washed twice with PAG buffer [PIPES buffer containing 0.003% human serum albumin (HSA) and 0.1% glucose]. Afterward, PMNs were counted by light microscopy on a hemocytometer. The isolation yielded PMNs with a purity of >95%. The final pellet was then suspended in PAG-CM buffer (PAG buffer with 1 mM CaCl2 and 1 mM MgCl2).
EPR Measurements. All EPR measurements were performed using a Bruker ER 300 EPR spectrometer operating at X-band with a TM110 cavity as previously described. The microwave frequency was measured with a Model 575 microwave counter (EIP Microwave, Inc., San Jose, Calif.). To measure superoxide anion (O2) generation from phorbol-ester (PMA)-stimulated PMNs, EPR spin-trapping studies were performed using the spin trap DEPMPO (Oxis, Portland, Oreg.) at 10 mM. 1×10^6 PMNs were stimulated with PMA (1 ng/mL) and loaded into capillary tubes for EPR measurements. To determine the radical scavenging ability of 3 and 9 in aqueous and ethanolic formulations, PMNs were pre-incubated for 5 minutes with test compound, followed by PMA stimulation.
Instrument settings used in the spin-trapping experiments were as follows: modulation amplitude, 0.32 G; time constant, 0.16 s; scan time, 60 s; modulation frequency, 100 kHz; microwave power, 20 milliwatts; and microwave frequency, 9.76 GHz. The samples were placed in a quartz EPR flat cell, and spectra were recorded. The component signals in the spectra were identified and quantified as reported previously.

[8] = Cardiac ischemia-reperfusion injury, experimental infarction model; type: in vivo, rat; conditions: intravenous pretreatment, rodents, highest dose tested
[9] = biological target: human serum albumin (HSA) (Homo sapiens, UniProt P02768); experiment: Plasma-protein binding studies in vitro
Chain of human serum albumin (HSA) (P02768 25-609): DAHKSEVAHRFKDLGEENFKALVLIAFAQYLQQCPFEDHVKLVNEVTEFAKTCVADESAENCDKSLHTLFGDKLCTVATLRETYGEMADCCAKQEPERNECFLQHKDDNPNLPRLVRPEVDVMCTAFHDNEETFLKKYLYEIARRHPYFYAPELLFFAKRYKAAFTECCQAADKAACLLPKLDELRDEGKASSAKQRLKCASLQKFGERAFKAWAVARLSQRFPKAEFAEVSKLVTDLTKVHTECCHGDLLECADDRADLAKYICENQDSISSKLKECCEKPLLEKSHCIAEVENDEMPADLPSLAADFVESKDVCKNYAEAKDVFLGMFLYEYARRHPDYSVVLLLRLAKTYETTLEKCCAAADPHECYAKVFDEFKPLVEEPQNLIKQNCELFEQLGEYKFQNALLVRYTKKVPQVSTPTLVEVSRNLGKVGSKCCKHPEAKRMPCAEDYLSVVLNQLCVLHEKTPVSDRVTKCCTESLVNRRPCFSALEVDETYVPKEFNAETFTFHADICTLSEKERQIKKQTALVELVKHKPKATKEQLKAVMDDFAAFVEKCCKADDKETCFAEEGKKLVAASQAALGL

CC1=C(/C=C/C(C)=C/C=C/C(C)=C/C=C/C=C(C)/C=C/C=C(C)/C=C/C2=C(C)C(=O)C(OC(=O)CCC(=O)O)CC2(C)C)C(C)(C)CC(OC(=O)CCC(=O)O)C1=O (racemic) [dAST, disodium salt disuccinate ester of astaxanthin]
protection against cardiac ischemia-reperfusion (I/R) injury [1]: significantly protect against cardiac ischemia-reperfusion (I/R) injury | protection against cardiac ischemia-reperfusion (I/R) injury [2]: significantly protect against cardiac ischemia-reperfusion (I/R) injury | absorption and tissue distribution after oral administration [3]: rapid absorption of the compound, its cleavage to free astaxanthin, and accumulation in certain target tissues | plasma and tissue levels of nonesterified astaxanthin [4]: significant plasma and tissue levels of nonesterified astaxanthin were achieved | expression of CX43 and GJIC (CX43): increased expression of the connexin protein CX43 and GJIC | inhibition of the induced superoxide anion (superoxide anion [5]): complete inhibition | concentration of pseudo-solution in water [6]: up to 8 mg/ml; also recorded: approximately 10 mM

CC1=C(/C=C/C(C)=C/C=C/C(C)=C/C=C/C=C(C)/C=C/C=C(C)/C=C/C2=C(C)C(=O)C(OC(=O)CCC(=O)O)CC2(C)C)C(C)(C)CC(OC(=O)CCC(=O)O)C1=O (stereo not shown) [dAST, disodium salt disuccinate ester of astaxanthin]
direct scavenging of superoxide anion (superoxide anion [7]): potent direct scavengers of superoxide anion in the aqueous phase | myocardial salvage [8]: up to 56%

CC(C=CC=C(C)C=CC1=C(C)C(=O)C(OC(=O)CCC(=O)[O-])CC1(C)C)=CC=CC=C(C)C=CC=C(C)C=CC1=C(C)C(=O)C(OC(=O)CCC(=O)[O-])CC1(C)C.[Na+].[Na+] [meso-(3R,3′S)-disodium disuccinate astaxanthin]
binding to human serum albumin [9]: bound immediately and preferentially to human serum albumin (HSA) at a binding site

Reference: US20060276372A1, “Carotenoids, carotenoid analogs, or carotenoid derivatives for the treatment of proliferative disorders” (priority 2005, published 2006)
